Reference: ChEMBL document CHEMBL5727267, “Compounds useful as inhibitors of ATR kinase” (2019)

Biological target: Serine/threonine-protein kinase ATR (Homo sapiens, UniProt Q13535)
Assay: Inhibition Assay: Compounds were screened for their ability to inhibit ATR kinase using a radioactive-phosphate incorporation assay. Assays were carried out in a mixture of 50 mM Tris/HCl (pH 7.5), 10 mM MgCl2 and 1 mM DTT. Final substrate concentrations were 10 μM [γ-33P]ATP (3mCi 33P ATP/mmol ATP, Perkin Elmer) and 800 μM target peptide ([…]) (SEQ ID NO:1).Assays were carried out at 25° C. in the presence of 5 nM full-length ATR. An assay stock buffer solution was prepared containing all of the reagents listed above, with the exception of ATP and the test compound of interest. 13.5 μL of the stock solution was placed in a 96 well plate followed by addition of 2 μL of DMSO stock containing serial dilutions of the test compound (typically starting from a final concentration of 15 μM with 3-fold serial dilutions) in duplicate (final DMSO concentration 7%). The plate was pre-incubated for 10 minutes at 25° C. and the reaction initiated by addition of 15 μL [γ-33P]ATP (final concentration 10 μM).The reaction was stopped after 24 hours by the addition of 30 μL 0.1M phosphoric acid containing 2 mM ATP. A multiscreen phosphocellulose filter 96-well plate (Millipore, Cat no. MAPHN0B50) was pretreated with 100 μL 0.2M phosphoric acid prior to the addition of […] of the stopped assay mixture. The plate was washed with 5×200 μL 0.2M phosphoric acid. After drying, 100 μL Optiphase ‘SuperMix’ liquid scintillation cocktail (Perkin Elmer) was added to the well prior to scintillation counting (1450 Microbeta Liquid Scintillation Counter, Wallac).

Sequence of Serine/threonine-protein kinase ATR (Q13535 whole entry): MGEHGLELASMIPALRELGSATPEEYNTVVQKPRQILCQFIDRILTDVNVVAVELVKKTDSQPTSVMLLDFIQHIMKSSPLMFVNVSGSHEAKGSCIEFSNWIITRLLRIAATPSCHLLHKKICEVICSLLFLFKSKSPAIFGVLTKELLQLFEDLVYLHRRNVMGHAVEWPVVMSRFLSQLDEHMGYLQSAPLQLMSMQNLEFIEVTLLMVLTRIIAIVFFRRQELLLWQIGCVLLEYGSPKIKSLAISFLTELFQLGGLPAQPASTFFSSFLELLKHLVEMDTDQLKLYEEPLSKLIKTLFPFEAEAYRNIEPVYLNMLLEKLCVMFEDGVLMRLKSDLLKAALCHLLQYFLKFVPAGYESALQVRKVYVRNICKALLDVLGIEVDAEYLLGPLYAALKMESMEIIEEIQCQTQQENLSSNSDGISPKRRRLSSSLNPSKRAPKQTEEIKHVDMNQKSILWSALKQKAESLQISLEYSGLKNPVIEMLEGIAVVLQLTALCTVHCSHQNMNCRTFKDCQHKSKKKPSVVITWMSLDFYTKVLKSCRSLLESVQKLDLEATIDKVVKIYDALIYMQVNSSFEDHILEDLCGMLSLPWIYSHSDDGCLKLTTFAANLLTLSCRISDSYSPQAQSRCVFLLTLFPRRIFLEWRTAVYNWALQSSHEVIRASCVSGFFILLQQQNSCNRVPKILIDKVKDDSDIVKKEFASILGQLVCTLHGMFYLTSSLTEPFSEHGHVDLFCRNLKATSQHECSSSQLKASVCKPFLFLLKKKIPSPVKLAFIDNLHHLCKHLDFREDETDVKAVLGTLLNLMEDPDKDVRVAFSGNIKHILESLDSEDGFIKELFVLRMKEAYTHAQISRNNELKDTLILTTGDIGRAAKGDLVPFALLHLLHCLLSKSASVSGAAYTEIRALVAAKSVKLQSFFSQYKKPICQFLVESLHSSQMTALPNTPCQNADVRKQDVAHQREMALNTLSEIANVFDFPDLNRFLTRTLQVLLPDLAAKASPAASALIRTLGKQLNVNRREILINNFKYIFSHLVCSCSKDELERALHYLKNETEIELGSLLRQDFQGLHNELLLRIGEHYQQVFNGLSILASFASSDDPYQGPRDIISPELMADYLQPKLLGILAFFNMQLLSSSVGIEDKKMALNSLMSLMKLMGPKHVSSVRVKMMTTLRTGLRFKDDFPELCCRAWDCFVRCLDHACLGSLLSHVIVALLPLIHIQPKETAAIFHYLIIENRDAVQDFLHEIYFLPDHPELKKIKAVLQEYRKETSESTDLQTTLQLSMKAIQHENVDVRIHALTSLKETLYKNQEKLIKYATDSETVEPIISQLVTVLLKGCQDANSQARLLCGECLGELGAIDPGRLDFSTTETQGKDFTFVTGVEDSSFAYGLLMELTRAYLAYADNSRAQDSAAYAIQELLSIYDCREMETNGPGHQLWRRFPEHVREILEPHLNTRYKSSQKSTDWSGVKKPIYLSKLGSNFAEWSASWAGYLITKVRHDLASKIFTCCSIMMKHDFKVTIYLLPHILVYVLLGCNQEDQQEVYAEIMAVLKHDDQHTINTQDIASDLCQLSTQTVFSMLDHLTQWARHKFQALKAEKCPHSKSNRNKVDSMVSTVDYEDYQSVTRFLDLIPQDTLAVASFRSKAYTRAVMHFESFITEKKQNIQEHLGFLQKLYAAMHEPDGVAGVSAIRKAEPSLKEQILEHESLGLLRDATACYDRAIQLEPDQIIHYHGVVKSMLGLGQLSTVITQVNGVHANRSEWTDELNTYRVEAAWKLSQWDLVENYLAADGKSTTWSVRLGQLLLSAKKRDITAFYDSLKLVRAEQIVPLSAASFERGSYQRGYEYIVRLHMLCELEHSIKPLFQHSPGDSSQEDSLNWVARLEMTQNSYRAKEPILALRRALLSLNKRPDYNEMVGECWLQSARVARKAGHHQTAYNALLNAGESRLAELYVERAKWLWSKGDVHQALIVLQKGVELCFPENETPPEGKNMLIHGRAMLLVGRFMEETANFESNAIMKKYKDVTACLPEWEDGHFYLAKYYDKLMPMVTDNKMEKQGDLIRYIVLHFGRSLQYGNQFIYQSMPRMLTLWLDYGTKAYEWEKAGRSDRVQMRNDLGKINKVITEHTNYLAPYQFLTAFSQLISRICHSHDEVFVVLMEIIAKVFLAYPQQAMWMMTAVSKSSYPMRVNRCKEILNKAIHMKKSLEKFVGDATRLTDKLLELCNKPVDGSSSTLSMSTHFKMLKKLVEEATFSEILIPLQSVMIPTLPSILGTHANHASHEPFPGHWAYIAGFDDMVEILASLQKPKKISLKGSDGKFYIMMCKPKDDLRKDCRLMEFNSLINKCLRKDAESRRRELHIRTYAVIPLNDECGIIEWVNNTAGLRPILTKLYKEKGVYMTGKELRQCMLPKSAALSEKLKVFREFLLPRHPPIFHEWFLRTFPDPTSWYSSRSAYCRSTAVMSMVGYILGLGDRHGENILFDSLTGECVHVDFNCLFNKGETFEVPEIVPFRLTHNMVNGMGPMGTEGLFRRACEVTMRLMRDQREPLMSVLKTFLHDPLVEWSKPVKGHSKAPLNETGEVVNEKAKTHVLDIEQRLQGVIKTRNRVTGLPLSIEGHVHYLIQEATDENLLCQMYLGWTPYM

| Structure (SMILES) | Ki |
| --- | --- |
| Nc1nn2cc(F)cnc2c1C(=O)Nc1cncc(F)c1N1CCC(C(=O)N2CCC(N3CCC3)CC2)CC1 | < 10 nM |
| N#CCc1cnc2c(C(=O)Nc3cnccc3O[C@H]3CCNC3)c(N)nn2c1 | < 10 nM |
| CC(=O)N1CCN(c2ccncc2NC(=O)c2c(N)nn3cc(F)cnc23)CC1 | 10 to 1000 nM |
